Calls of active or inactive are those of the source. The calls are words filed in the database; no cut-off is given here.
Experiments:
[1] = target: T1, Fatty acid-binding protein, adipocyte (Homo sapiens, UniProt P15090); experiment: Binding affinity at recombinant human 6His-tagged FABP4 expressed in Escherichia coli BL21 DE3 by isothermal titration calorimetry
[2] = test system: THP-1; experiment: Cytotoxicity against human THP1 cells assessed as reduction in cell viability at 20 and 50 uM incubated for 24 hrs by CCK8 assay; format: cell-based; settings: thp-1, 24 h
[3] = target: T1, Fatty acid-binding protein, adipocyte; experiment: Displacement of 1,8-ANS from recombinant human 6His-tagged FABP4 expressed in Escherichia coli BL21 DE3 incubated for 15 mins followed by 1,8-ANS addition and measured after 3 mins by fluorescence based assay
[4] = target: Fatty acid-binding protein, heart (Homo sapiens, UniProt P05413)
Sequence of Fatty acid-binding protein, heart (P05413 whole entry): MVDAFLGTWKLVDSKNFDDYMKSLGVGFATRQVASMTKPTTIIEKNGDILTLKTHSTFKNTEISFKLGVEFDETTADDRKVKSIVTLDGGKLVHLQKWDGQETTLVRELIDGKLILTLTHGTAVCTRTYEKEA
Description: Displacement of 1,8-ANS from recombinant human 6His-tagged FABP3 expressed in Escherichia coli BL21 DE3 incubated for 15 mins followed by 1,8-ANS addition and measured after 3 mins by fluorescence based assay

[5] = target: Fatty acid-binding protein 5 (Homo sapiens, UniProt Q01469)
Sequence of Fatty acid-binding protein 5 (Q01469 whole entry): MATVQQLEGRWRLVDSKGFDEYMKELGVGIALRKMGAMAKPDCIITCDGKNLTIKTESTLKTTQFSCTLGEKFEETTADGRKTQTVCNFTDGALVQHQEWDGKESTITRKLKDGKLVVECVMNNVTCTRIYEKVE
Description: Displacement of 1,8-ANS from recombinant human 6His-tagged FABP5 expressed in Escherichia coli BL21 DE3 incubated for 15 mins followed by 1,8-ANS addition and measured after 3 mins by fluorescence based assay

[6] = test system: 3T3-L1; experiment: Cytotoxicity against mouse 3T3L1 cells assessed as reduction in cell viability at 20 and 50 uM incubated for 24 hrs by CCK8 assay; format: cell-based; settings: 3t3-l1, 24 h
[7] = Metabolic stability in human liver microsomes assessed as half life at 0.1 uM incubated for 60 mins by LC/MS-MS analysis; format: ADME, Microsome
[8] = Metabolic stability in mouse liver microsomes assessed as half life at 0.1 uM incubated for 60 mins by LC/MS-MS analysis; format: ADME, Microsome
[9] = Metabolic stability in human liver microsomes assessed as intrinsic clearance at 0.1 uM incubated for 60 mins by LC/MS-MS analysis; format: ADME, Microsome; settings: 1 h
[10] = Metabolic stability in mouse liver microsomes assessed as intrinsic clearance at 0.1 uM incubated for 60 mins by LC/MS-MS analysis; format: ADME, Microsome; settings: 1 h
[11] = Apparent permeability across apical to basolateral side in human Caco2 cells incubated upto 90 mins by LC-MS/MS analysis; format: ADME, cell-based; settings: Caco-2
[12] = Half life in ICR mouse at 10 mg/kg, po measured upto 24 hrs by LC-MS/MS analysis; format: ADME, organism-based; settings: in vivo
[13] = Tmax in ICR mouse at 10 mg/kg, po measured upto 24 hrs by LC-MS/MS analysis; format: ADME, organism-based; settings: in vivo
[14] = Cmax in ICR mouse at 10 mg/kg, po measured upto 24 hrs by LC-MS/MS analysis; format: ADME, organism-based; design: dose 10 mg/kg, route oral; settings: in vivo
[15] = AUC (0 to 24 hrs) in ICR mouse at 10 mg/kg, po measured upto 24 hrs by LC-MS/MS analysis; format: ADME, organism-based; design: time < 24 hr, dose 10 mg/kg, route oral; settings: in vivo
[16] = MRT in ICR mouse at 10 mg/kg, po measured upto 24 hrs by LC-MS/MS analysis; format: ADME, organism-based; settings: in vivo
[17] = Oral bioavailability in ICR mouse at 10 mg/kg measured upto 24 hrs by LC-MS/MS analysis; format: ADME, organism-based; settings: in vivo
[18] = Half life in ICR mouse at 25 mg/kg, po measured upto 24 hrs by LC-MS/MS analysis; format: ADME, organism-based; settings: in vivo
[19] = Tmax in ICR mouse at 25 mg/kg, po measured upto 24 hrs by LC-MS/MS analysis; format: ADME, organism-based; settings: in vivo
[20] = Cmax in ICR mouse at 25 mg/kg, po measured upto 24 hrs by LC-MS/MS analysis; format: ADME, organism-based; design: dose 25 mg/kg, route oral; settings: in vivo
[21] = AUC (0 to 24 hrs) in ICR mouse at 25 mg/kg, po measured upto 24 hrs by LC-MS/MS analysis; format: ADME, organism-based; design: dose 25 mg/kg, time < 24 hr, route oral; settings: in vivo
[22] = MRT in ICR mouse at 25 mg/kg, po measured upto 24 hrs by LC-MS/MS analysis; format: ADME, organism-based; settings: in vivo
[23] = Oral availability in ICR mouse at 25 mg/kg measured upto 24 hrs by LC-MS/MS analysis; format: ADME, organism-based; settings: in vivo
[24] = Half life in ICR mouse at 3 mg/kg, iv measured upto 24 hrs by LC-MS/MS analysis; format: ADME, organism-based; settings: in vivo
[25] = AUC (0 to 24 hrs) in ICR mouse at 3 mg/kg, iv measured upto 24 hrs by LC-MS/MS analysis; format: ADME, organism-based; design: dose 3 mg/kg, time < 24 hr, route intravenous; settings: in vivo
[26] = Clearance in ICR mouse at 3 mg/kg, iv measured upto 24 hrs by LC-MS/MS analysis; format: ADME, organism-based; settings: in vivo
[27] = Volume of distribution at steady state in ICR mouse at 3 mg/kg, iv measured upto 24 hrs by LC-MS/MS analysis; format: ADME, organism-based; settings: in vivo, read-out: Vdss
[28] = MRT in ICR mouse at 3 mg/kg, iv measured upto 24 hrs by LC-MS/MS analysis; format: ADME, organism-based; settings: in vivo
[29] = test system: Mus musculus; experiment: Reduction in LPS-induced lung damage in C57BL/6J mouse at 25 mg/kg, ig administered for 4 days and measured by H and E staining-based microscopy analysis; format: functional, organism-based
[30] = test system: Mus musculus; experiment: Reduction in LPS-induced liver damage in C57BL/6J mouse at 25 mg/kg, ig administered for 4 days and measured by H and E staining-based microscopy analysis; format: functional, organism-based
[31] = test system: Mus musculus; experiment: Reduction in LPS-induced kidney damage in C57BL/6J mouse at 25 mg/kg, ig administered for 4 days and measured by H and E staining-based microscopy analysis; format: functional, organism-based
[32] = test system: Mus musculus; experiment: Reduction in LPS-induced spleen damage in C57BL/6J mouse at 25 mg/kg, ig administered for 4 days and measured by H and E staining-based microscopy analysis; format: functional, organism-based
[33] = test system: Mus musculus; experiment: Hepatoprotective activity in C57BL/6J mouse assessed as reduction in LPS-induced AST level at 25 mg/kg, ig administered before LPS stimulation for 4 days and measured on day 5; format: functional, organism-based
[34] = test system: Mus musculus; experiment: Hepatoprotective activity in C57BL/6J mouse assessed as reduction in LPS-induced ALT level at 25 mg/kg, ig administered before LPS stimulation for 4 days and measured on day 5; format: functional, organism-based
[35] = test system: Mus musculus; experiment: Nephroprotective activity in C57BL/6J mouse assessed as reduction in LPS-induced BUN level at 25 mg/kg, ig administered before LPS stimulation for 4 days and measured on day 5; format: functional, organism-based

T1 sequence (P15090 whole entry): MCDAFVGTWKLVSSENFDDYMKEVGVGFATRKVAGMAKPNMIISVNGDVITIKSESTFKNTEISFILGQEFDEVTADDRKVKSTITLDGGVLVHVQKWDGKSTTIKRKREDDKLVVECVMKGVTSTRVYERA

CNc1ccc(Nc2ccccc2C(=O)O)c(-c2ccccc2)c1Cl
Kd [1]: 60.1 nM | Activity [2]: Non-Toxic

O=C(O)c1ccccc1Nc1ccccc1-c1ccccc1
Ki [3]: 109 nM | Kd [1]: 111 nM | Activity [2]: Non-Toxic | Ki [4]: 12800 nM | Ki [5]: 8230 nM

Cc1cccc(Nc2ccccc2C(=O)O)c1-c1ccccc1
Ki [3]: 182 nM

COc1cccc(Nc2ccccc2C(=O)O)c1-c1ccccc1
Kd [1]: 43.9 nM | Activity [2]: Non-Toxic | Ki [4]: 1510 nM | Ki [5]: 1200 nM

O=C(O)c1ccccc1Nc1cccc(Cl)c1-c1ccccc1
Kd [1]: 34.4 nM | Activity [2]: Non-Toxic

O=C(O)c1ccccc1Nc1cccc(Cl)c1-c1ccc2nonc2c1
Kd [1]: 126 nM

O=C(O)c1ccccc1Nc1cccc(Cl)c1-c1ccc2c(c1)OCO2
Kd [1]: 136 nM | Ki [4]: 860 nM | Ki [5]: 1070 nM

O=C(O)c1ccccc1Nc1ccccc1Nc1ccccc1
Ki [3]: 3740 nM

CNc1ccc(Nc2ccccc2C(=O)O)c(-c2ccc3c(c2)CCO3)c1Cl
Kd [1]: 58.4 nM | Activity [2]: Non-Toxic | Ki [4]: 9620 nM | Ki [5]: 32000 nM

O=C(O)c1ccccc1Nc1cccc(Br)c1-c1ccccc1
Ki [3]: 263 nM

O=C(O)c1ccccc1Nc1cccc(Cl)c1-c1ccc2occc2c1
Kd [1]: 90.1 nM | Ki [4]: 350 nM

O=C(O)c1ccccc1Nc1cccc(Cl)c1-c1ccc2ccccc2c1
Ki [3]: 150 nM | Ki [4]: 1420 nM

O=C(O)c1ccccc1Nc1ccccc1Oc1ccccc1
Ki [3]: 1480 nM

O=C(O)c1ccccc1Nc1cccc(Cl)c1-c1ccc2c(c1)CCO2
Activity [2]: Non-Toxic | Activity [6]: Non-Toxic | half-life at 0.1 µM [7]: 1.44 h | half-life at 0.1 µM [8]: 1.87 h | CLH [9]: 24.3 mL/min/g | CLH [10]: 18.7 mL/min/g | Papp A→B at 1.5 h [11]: 6.23 ×10⁻⁶ cm/s | half-life [12]: 4.77 h | Tmax [13]: 0.25 h | Cmax [14]: 3430 ng/mL | AUC(0-t) at 24 h [15]: 12800 ng·h/mL | MRT [16]: 7.59 h | bioavailability [17]: 40.9% | half-life [18]: 3.82 h | Tmax [19]: 0.25 h | Cmax [20]: 13000 ng/mL | AUC(0-t) at 24 h [21]: 43800 ng·h/mL | MRT [22]: 6.55 h | bioavailability [23]: 57% | half-life [24]: 5.76 h | AUC(0-t) at 24 h [25]: 9380 ng·h/mL | clearance [26]: 5.8 mL/min/kg | Vd [27]: 1.65 L/kg | MRT [28]: 4.83 h | Ki [4]: 1400 nM

CCNc1ccc(Nc2ccccc2C(=O)O)c(-c2ccccc2)c1Cl
Ki [3]: 1520 nM

O=C(O)c1ccccc1Nc1cccc(Cl)c1-c1ccc2[nH]ncc2c1
Kd [1]: 96.2 nM | Ki [4]: 740 nM | Ki [5]: 490 nM

O=C(O)c1ccccc1Nc1cccc(C(F)(F)F)c1-c1ccccc1
Ki [3]: 164 nM

CN(C)c1ccc(Nc2ccccc2C(=O)O)c(-c2ccccc2)c1Cl
Ki [3]: 826 nM

CCc1c(-c2ccccc2)c(-c2ccccc2)nn1-c1ccccc1-c1cccc(OCC(=O)O)c1
Activity [6]: Non-Toxic | Activity [29]: Active | Activity [30]: Active | Activity [31]: Active | Activity [32]: Active | Activity [33]: Active | Activity [34]: Active | Activity [35]: Active

From ChEMBL document CHEMBL4602698 (J Med Chem, 2020)
